Molecular target: T1, Human AMPK α2β2γ1 (Homo sapiens, UniProt O43741+P54646)
T1 construct: The full length cDNAs of human AMPK β2 (NM_005399.3) and human AMPK α2 (NM_006252.3); The full length cDNAs of human AMPK β2 (NM_005399.3); the full length cDNA of human AMPK γ1 (NM_002733.3) had been inserted into pET28b(+); 6×His (N); made in house; host or cells: Escherichia coli BL21 CodonPlus (DE3)-RIL
Test: Test Example 2: activation of phosphorylated human AMPK α2β2γ1 (mobility-shift kinase assay, FL-Peptide 7)
Type: biochemical
Conditions: for EC150: compound concentration showing 150% relative to the control (100%), human AMPK α2β2γ1 phosphorylated with CaMKK2; for Emax: maximum rate of increase in activity within the measurement range, control = 100%, read-out: Emax
Procedure: The full length cDNAs of human AMPK β2 (NM_005399.3) and human AMPK α2 (NM_006252.3) were inserted into the MCS1 and MCS2 of the pETDuet-1 vector to prepare a human AMPK β2 and human AMPK α2 (6×His tag at the 5′ terminus) expressing plasmid. The plasmid was cotransfected with an expression plasmid, in which the full length cDNA of human AMPK γ1 (NM_002733.3) had been inserted into pET28b(+), into BL21 CodonPlus (DE3)-RIL to obtain an expression strain. The expression strain was cultured in TB medium, followed by induction with 0.5 mM IPTG, and cultured at 25° C. for 3 hours and then harvested. After ultrasonication, supernatant was collected and applied to Histrap FF column (GE) and RESOUECE Q column (GE) to prepare 12.5 mg of purified sample containing three types of subunit from 1.8 L of broth.
An expression vector, in which the full length cDNA of human CAMKK β (NM_172226.1) had been inserted into pGEX-6P-3, was transfected into BL21 Star (DE3). The expression strain was cultured in TB medium, followed by induction with 0.5 mM IPTG, and cultured at 25° C. for 3 hours and then harvested. After ultrasonication, supernatant was collected and applied to GSTrap FF column (GE) to prepare 14 mg of GST-fused CAMKK β from 720 ml of broth.
Thus, phosphorylation treatment was carried out as pretreatment.
Human AMPK α2β2γ1 in an amount to give a conversion rate of approximately 10% by reaction for 2 hours, and CaMKK2 in an amount capable of sufficiently imparting activity to AMPK for one hour were mixed in a buffer solution consisting of a 50 mM HEPES-NaOH buffer solution (pH 7.0), 100 mM NaCl, 5 mM magnesium chloride, 0.1% bovine serum albumin, 0.2 mM sodium orthovanadate(V), 1 mM ethylene glycol-bis(2-aminoethyl ether)-N,N,N′,N′-tetraacetic acid (EGTA), 5 mM disodium β-glycerophosphate, 1 mM dithiothreitol and 0.2 mM ATP, and the resulting liquid was left to stand at 25° C. for 1 to 1.5 hours to sufficiently phosphorylate AMPK.
After that, to the enzyme liquid, which had been subjected to phosphorylation treatment, a compound dissolved in DMSO was added so as to have a 1% DMSO concentration. The resulting liquid was left to stand for 10 minutes.
To the liquid, a substrate solution consisting of a 50 mM HEPES-NaOH buffer solution (pH 7.0), 100 mM NaCl, 10 mM magnesium chloride, 0.1% bovine serum albumin, 0.2 mM sodium orthovanadate(V), 1 mM ethylene glycol-bis(2-aminoethyl ether)-N,N,N′,N′-tetraacetic acid (EGTA), 5 mM disodium β-glycerophosphate, 2 mM dithiothreitol, 0.4 mM ATP and 3 μM FL-Peptide 7 (manufactured by Caliper Life Sciences, Inc.) was added in equal amount (10 μl in total). The resulting liquid was allowed to react at 25° C. for 2 hours, then 10 μl of 20 mM EDTA was added thereto to stop the reaction.
To detect phosphorylated fluorescent substrates, the reaction mixture was applied to a measuring device, LabChip EZ Reader II manufactured by Caliper Life Science, Inc., for detecting fluorescence by using differences in mobility due to differences in charge. The setting conditions for the device were pressure, −1.5 PSI; upstream voltage, −2250 V; downstream voltage, −400 V; post sample buffer sip time, 40 seconds; final delay, 120 seconds; and peak order, Product First.
A conversion rate was calculated from the peak heights of the obtained substrate and product. The conversion rate when not containing a compound was used as a control, and a concentration dependent curve was made by plotting the rate of increase in activity to the control at each concentration of a compound.

T1 sequence (P54646 whole entry): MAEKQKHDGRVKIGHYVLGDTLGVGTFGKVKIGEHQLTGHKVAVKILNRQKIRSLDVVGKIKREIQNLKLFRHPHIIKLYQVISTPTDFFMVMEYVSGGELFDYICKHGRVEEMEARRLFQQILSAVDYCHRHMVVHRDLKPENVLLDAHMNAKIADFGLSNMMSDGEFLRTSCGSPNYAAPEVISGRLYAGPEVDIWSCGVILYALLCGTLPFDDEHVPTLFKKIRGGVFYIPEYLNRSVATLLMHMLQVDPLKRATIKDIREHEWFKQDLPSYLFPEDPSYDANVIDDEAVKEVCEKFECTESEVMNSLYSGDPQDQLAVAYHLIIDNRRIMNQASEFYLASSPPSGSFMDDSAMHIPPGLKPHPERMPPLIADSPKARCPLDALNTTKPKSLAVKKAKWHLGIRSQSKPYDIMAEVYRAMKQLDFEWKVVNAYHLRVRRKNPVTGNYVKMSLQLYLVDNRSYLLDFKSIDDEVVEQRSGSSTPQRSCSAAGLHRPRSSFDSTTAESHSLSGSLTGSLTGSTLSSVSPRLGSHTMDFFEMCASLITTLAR
T1 sequence (O43741 whole entry): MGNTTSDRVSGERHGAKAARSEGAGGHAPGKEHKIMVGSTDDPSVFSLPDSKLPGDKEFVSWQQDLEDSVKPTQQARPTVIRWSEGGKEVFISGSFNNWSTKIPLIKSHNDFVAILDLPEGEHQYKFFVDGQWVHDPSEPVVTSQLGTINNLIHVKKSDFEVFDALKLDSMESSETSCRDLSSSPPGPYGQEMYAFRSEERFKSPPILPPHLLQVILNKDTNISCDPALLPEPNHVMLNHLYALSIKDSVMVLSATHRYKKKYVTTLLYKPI
T1 sequence (P54619 whole entry partner): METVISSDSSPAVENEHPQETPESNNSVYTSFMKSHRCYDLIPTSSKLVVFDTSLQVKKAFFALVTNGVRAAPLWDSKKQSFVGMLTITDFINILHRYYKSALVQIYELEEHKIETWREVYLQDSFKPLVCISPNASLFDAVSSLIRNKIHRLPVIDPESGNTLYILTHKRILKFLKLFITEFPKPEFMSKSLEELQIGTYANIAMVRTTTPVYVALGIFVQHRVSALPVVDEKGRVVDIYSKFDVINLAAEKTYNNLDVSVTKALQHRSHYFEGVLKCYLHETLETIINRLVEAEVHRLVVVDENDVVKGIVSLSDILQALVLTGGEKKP

| SMILES | EC150 | Emax |
| --- | --- | --- |
| CC(C)(C)P(=O)(c1ccc(-c2ccc(-c3nc4cc(O[C@@H]5CO[C@H]6[C@@H]5OC[C@H]6O)[nH]c4cc3F)cc2)cc1)C(C)(C)C [Compound I-2-67] | 22 nM | 555% |
| OC1CCN(c2ccc(-c3ccc(-c4nc5cc(O[C@@H]6CO[C@H]7[C@@H]6OC[C@H]7O)[nH]c5cc4F)cc3)cc2)C1 (stereo partly drawn) [Compound I-1-59] | 2.9 nM | 470% |
| O=C(C1CCN(c2ccc(-c3nc4cc(O[C@@H]5CO[C@H]6[C@@H]5OC[C@H]6O)[nH]c4cc3F)cc2)CC1)N1CCCC1 [Compound I-2-44] | 35 nM | 661% |
| COCCOC1CCN(c2ccc(-c3nc4cc(O[C@@H]5CO[C@H]6[C@@H]5OC[C@H]6O)[nH]c4cc3F)cc2)C1 (stereo partly drawn) [Compound I-1-62] | 21 nM | 392% |
| O[C@@H]1CO[C@H]2[C@@H]1OC[C@H]2Oc1cc2nc(-c3ccc(-c4ccc(NC5=NCCO5)cc4)cc3)c(F)cc2[nH]1 [Compound I-1-61] | 2.3 nM | 383% |
| COCCOc1ccc(-c2ccc(-c3nc4cc(O[C@@H]5CO[C@H]6[C@@H]5OC[C@H]6O)[nH]c4cc3F)cc2)cc1F [Compound I-2-59] | 40 nM | 458% |
| CS(C)(=O)=Nc1ccc(-c2ccc(-c3nc4cc(O[C@@H]5CO[C@H](CO)[C@H]5F)[nH]c4cc3F)cc2)cc1 [Compound I-2-42] | 2.6 nM | 647% |
| CONC(=O)c1ccc(-c2ccc(-c3nc4cc(O[C@@H]5CO[C@H](CO)C5)[nH]c4cc3F)cc2)cc1 [Compound I-2-86] | 0.53 nM | 592% |
| CP(C)(=O)c1ccc(-c2ccc(-c3nc4cc(O[C@@H]5CO[C@H](CO)C5)[nH]c4cc3F)cc2)cc1 [Compound I-2-65] | 0.6 nM | 673% |
| CS(=O)(=O)c1ccc(-c2ccc(-c3nc4cc(O[C@@H]5CO[C@H](CO)C5)[nH]c4cc3F)cc2)cc1 [Compound I-2-79] | 0.69 nM | 591% |
| COCCOC1CCN(c2ccc(-c3nc4cc(O[C@@H]5CO[C@H]6[C@@H]5OC[C@H]6O)[nH]c4cc3F)cc2)CC1 [Compound I-2-34] | 20 nM | 425% |
| CS(C)(=O)=Nc1ccc(-c2ccc(-c3nc4cc(O[C@@H]5CO[C@H]6[C@@H]5OC[C@H]6O)[nH]c4cc3Cl)cc2)cc1 [Compound I-1-30] | 1.7 nM | 500% |
| CNC(=O)OC1CCN(c2ccc(-c3nc4cc(O[C@@H]5CO[C@H]6[C@@H]5OC[C@H]6O)[nH]c4cc3F)cc2)CC1 [Compound I-1-49] | 19 nM | 551% |
| O=S1(=Nc2ccc(-c3ccc(-c4nc5cc(O[C@@H]6CO[C@H]7[C@@H]6OC[C@H]7O)[nH]c5cc4F)cc3)cc2)CCOCC1 [Compound I-1-42] | 5.3 nM | 472% |
| OC[C@@H]1C[C@H](Oc2cc3nc(-c4ccc(C5(CO)CC5)cc4)c(F)cc3[nH]2)CO1 [Compound I-2-80] | 2 nM | 558% |
| O[C@@H]1CO[C@H]2[C@@H]1OC[C@H]2Oc1cc2nc(-c3ccc(C4=CCN(C5=NCCO5)CC4)cc3)c(F)cc2[nH]1 [Compound I-1-51] | 12 nM | 486% |
| O[C@@H]1CO[C@H]2[C@@H]1OC[C@H]2Oc1cc2nc(-c3ccc(N4CCC(OC5CCNCC5)CC4)cc3)c(F)cc2[nH]1 [Compound I-2-62] | 47 nM | 514% |

| SMILES | EC150 | Emax |
| --- | --- | --- |
| CN(C)C(=O)OC1CCN(c2ccc(-c3nc4cc(O[C@@H]5CO[C@H]6[C@@H]5OC[C@H]6O)[nH]c4cc3F)cc2)CC1 [Compound I-1-50] | 23 nM | 539% |
| CC(C)OC(=O)NC1CCN(c2ccc(-c3nc4cc(O[C@@H]5CO[C@H]6[C@@H]5OC[C@H]6O)[nH]c4cc3F)cc2)CC1 [Compound I-1-34] | 8.6 nM | 518% |
| COCCOc1ccc(-c2ccc(-c3nc4cc(O[C@@H]5CO[C@H]6[C@@H]5OC[C@H]6O)[nH]c4cc3F)cc2)cn1 [Compound I-2-40] | 16 nM | 384% |
| CCOC(=O)N[C@H]1CC[C@H](c2ccc(-c3nc4cc(O[C@@H]5CO[C@H]6[C@@H]5OC[C@H]6O)[nH]c4cc3F)cc2)CC1 [Compound I-1-14] | 24 nM | 513% |
| Cc1cc(-c2ccc(N=S(C)(C)=O)cc2)ccc1-c1nc2cc(O[C@@H]3CO[C@H]4[C@@H]3OC[C@H]4O)[nH]c2cc1F [Compound I-1-48] | 2.9 nM | 576% |
| O=C1OCCN1c1ccc(-c2ccc(-c3nc4cc(O[C@@H]5CO[C@H]6[C@@H]5OC[C@H]6O)[nH]c4cc3F)cc2)cc1 [Compound I-2-41] | 0.8 nM | 634% |
| NC(=O)c1ccc(-c2ccc(-c3nc4cc(O[C@@H]5CO[C@H]6[C@@H]5OC[C@H]6O)[nH]c4cc3F)cc2)cc1F [Compound I-1-52] | 2.2 nM | 469% |
| C[S@](=O)(=Nc1ccc(-c2ccc(-c3nc4cc(O[C@@H]5CO[C@H]6[C@@H]5OC[C@H]6O)[nH]c4cc3F)cc2)cc1)c1ccccc1 [Compound I-1-18] | 19 nM | 415% |
| CNCCOc1ccc(-c2ccc(-c3nc4cc(O[C@@H]5CO[C@H]6[C@@H]5OC[C@H]6O)[nH]c4cc3F)cc2)cc1 [Compound I-1-69] | 1.6 nM | 359% |
| CNS(C)(=O)=Nc1ccc(-c2ccc(-c3nc4cc(O[C@@H]5CO[C@H]6[C@@H]5OC[C@H]6O)[nH]c4cc3F)cc2)cc1 (stereo partly drawn) [Compound I-2-04] | 0.67 nM | 638% |
| CO[C@@H]1[C@@H](CO)OC[C@H]1Oc1cc2nc(-c3ccc(-c4ccc(N=S(C)(C)=O)cc4)cc3)c(F)cc2[nH]1 [Compound I-2-38] | 9.2 nM | 597% |
| COC(=O)N1CCN(c2ccc(-c3nc4cc(O[C@@H]5CO[C@H]6[C@@H]5OC[C@H]6O)[nH]c4cc3F)cc2)CC1 [Compound I-1-57] | 32 nM | 550% |
| C[S+]([O-])c1ccc(-c2ccc(-c3nc4cc(O[C@@H]5CO[C@H](CO)C5)[nH]c4cc3F)cc2)cc1 (single isomer, unassigned) [Compound I-2-06] | 0.46 nM | 621% |
| CS(C)(=O)=Nc1ccc(-c2ccc(-c3nc4cc(O[C@H]5CCOC5)[nH]c4cc3F)cc2)cc1 [Compound I-1-46] | 6.6 nM | 276% |
| O[C@@H]1CO[C@H]2[C@@H]1OC[C@H]2Oc1cc2nc(-c3ccc([C@@H]4CCCC[C@H]4O)cc3)c(F)cc2[nH]1 [Compound I-2-17] | 15 nM | 600% |
| CS(=O)(=O)Nc1ccc(-c2ccc(-c3nc4cc(O[C@@H]5CO[C@H]6[C@@H]5OC[C@H]6O)[nH]c4cc3F)cc2)cc1 [Compound I-1-53] | 1.6 nM | 533% |
